Where two headings read alike, the source gives them in different places.
Experiments:
[1] = tested on: L. donovani HU3 strain in mouse peritoneal macrophages; assay: Assay for proliferation of Leishmania parasites in infected mouse peritoneal macrophages (SybrGreen staining, high-content imaging, 5 days); format: cell-based, Leishmania donovani; settings: Leishmania donovani, Peritoneal macrophage, L. donovani in mouse peritoneal macrophages, read-out: L. donovani Macrophage EC50
[2] = tested on: Leishmania donovani axenic amastigote parasites; assay: Leishmania donovani axenic amastigote proliferation assay (Cell TiterGlo luminescence, 2 day incubation); format: cell-based; settings: Leishmania donovani, read-out: L. donovani amastigotes EC50
[3] = tested on: Trypanosoma brucei Lister 427 strain, bloodstream form; assay: Assay for proliferation of kinetoplastid parasite Trypanosoma brucei (Cell Titer Glo, 48 hours); format: cell-based; settings: Trypanosoma brucei, T. brucei Lister 427 bloodstream form, read-out: T. brucei EC50
Summary of the method: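 Bloodstream-form T. brucei Lister 427 in HMI-9 medium was exposed to compound (DMSO vehicle) for 48 hours at 37° C, 5% CO2. Parasite growth was read as ATP by CellTiter-Glo luminescence, with EC50 calculated from percent inhibition.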

[4] = tested on: Trypanosoma cruzi amastigotes (Tulahuen strain expressing Lac-Z) cultured in 3T3 fibroblast cells; assay: microbe, parasite or virus in culture; format: cell-based; settings: Trypanosoma cruzi, TULAHUEN, Fibroblast, T. cruzi amastigotes in 3T3 fibroblast cells, read-out: T cruzi EC50
[5] = axenic amastigotes, inhibition of proliferation

| Compound | EC50 [1] | EC50 ([2]; L. donovani axenic amastigotes) | EC50 [3] | EC50 [4] | EC50 ([1]; inhibition of proliferation) | EC50 [2, 5] | EC50 ([3]; inhibition of proliferation) | EC50 ([4]; inhibition of proliferation) |
| --- | --- | --- | --- | --- | --- | --- | --- | --- |
| Cc1nc(C)c(C(=O)Nc2ccc(F)c(-c3cn4cc(C5CCNCC5)cnc4n3)c2)o1 [Compound 538, N-(4-fluoro-3-(6-(piperidin-4-yl)imidazo[1,2-a]pyrimidin-2-yl)phenyl)-2,4-dimethyloxazole-5-carboxamide] | 1860 nM | 2360 nM | 613 nM | 447 nM |  |  |  |  |
| Cc1nc(C)c(C(=O)Nc2ccc(F)c(-c3cn4cc(-c5cccc(C(N)=O)n5)cnc4n3)c2)o1 [Compound 433] | > 50000 nM | 1810 nM | 494 nM | > 20000 nM |  |  |  |  |
| Cc1nc(C)c(C(=O)Nc2ccc(F)c(-c3cn4cc(-c5cncn5C)cnc4n3)c2)o1 [Compound 370] |  |  |  |  | 3610 nM | 5470 nM | 386 nM | 7370 nM |
| Cc1nc(C(=O)Nc2ccc(F)c(-c3cn4cc(NC(=O)OC(C)C)cnc4n3)c2)c(C(F)(F)F)o1 [Compound 69] |  |  |  |  | 3300 nM | 1400 nM | 3120 nM | 403 nM |
| Cc1nc(C)c(C(=O)Nc2ccc(F)c(-c3cn4cc(NC(=O)c5c[nH]cn5)cnc4n3)c2)o1 [Compound 167] |  |  |  |  | > 50000 nM | 10800 nM | 904 nM | > 20000 nM |
| Cn1cnc(-c2cnc3nc(-c4cc(NC(=O)N5CCCC5)ccc4F)cn3c2)c1 [Compound 355] |  |  |  |  | 521 nM | 97 nM | 86 nM | 1140 nM |
| CN(C)C(=O)Nc1ccc(F)c(-c2cn3cc(Cl)cnc3n2)c1 [Compound 225] |  |  |  |  | 8250 nM | 1610 nM | 468 nM | 1200 nM |
| CCN(C)C(=O)Nc1ccc(Cl)c(-c2cn3cc(NC(=O)OC(C)C)cnc3n2)c1 [Compound 250] |  |  |  |  | 839 nM | 498 nM | 112 nM | 631 nM |
| Cc1nc(C)c(C(=O)Nc2ccc(F)c(-c3cn4cc(-c5ccnn5C(C)C)cnc4n3)c2)o1 [Compound 390] | 174 nM | 53 nM | 54 nM | 75 nM |  |  |  |  |
| O=C(Nc1ccc(F)c(-c2cn3cc(NC4CCOCC4)cnc3n2)c1)N1CCCC1 [Compound 475] | 5980 nM | 1310 nM | 217 nM | 9160 nM |  |  |  |  |
| Cc1nc(C)c(C(=O)Nc2ccc(F)c(-c3cn4cc(NC(=O)C5CCOCC5)cnc4n3)c2)o1 [Compound 158] |  |  |  |  | > 50000 nM | 1920 nM | 4100 nM | > 20000 nM |
| Cc1nc(C)c(C(=O)Nc2ccc(F)c(-c3cn4cc(C#CCCO)cnc4n3)c2)o1 [Compound 543, N-(4-fluoro-3-(6-(4-hydroxybut-1-yn-1-yl)imidazo[1,2-a]pyrimidin-2-yl)phenyl)-2,4-dimethyloxazole-5-carboxamide] | 759 nM | 212 nM | 134 nM | 882 nM |  |  |  |  |
| Cc1nc(C)c(C(=O)Nc2cccc(-c3cn4cc(-c5ccccc5)cnc4n3)c2)o1 [Compound 336] |  |  |  |  | 168 nM | 74 nM | 86 nM | 45 nM |
| Cc1nc(C)c(C(=O)Nc2ccc(F)c(-c3cn4cc(-c5ccc(OCCN6CCOCC6)cc5)cnc4n3)c2)o1 [Compound 359] |  |  |  |  | 4860 nM | 450 nM | 1500 nM | 405 nM |
| Cc1nc(C)c(C(=O)Nc2ccc(F)c(-c3cn4cc(NC(=O)c5ncco5)cnc4n3)c2)o1 [Compound 188] |  |  |  |  | > 5600 nM | 226 nM | 185 nM | 1230 nM |
| COC1CCC(C(=O)Nc2ccc(F)c(-c3cn4cc(C5CC5)cnc4n3)c2)CC1 (centres unmarked) [Compound 597] | 17100 nM | 24100 nM | 31400 nM | 16000 nM |  |  |  |  |
| [2H]C([2H])([2H])N(C(=O)Nc1ccc(F)c(-c2cn3cc(C4CC4)cnc3n2)c1)C([2H])([2H])[2H] [Compound 606] | 3200 nM | 545 nM | 267 nM | 380 nM |  |  |  |  |
| O=C(Nc1ccc(F)c(-c2cn3cc(-c4ccccc4)cnc3n2)c1)N1CC[C@@H](F)C1 [Compound 409] | 61 nM | 19 nM | 4 nM | 5 nM |  |  |  |  |
| CCC(O)(C(=O)Nc1cnc2nc(-c3cc(NC(=O)N4CCCC4)ccc3F)cn2c1)C(F)(F)F (centres unmarked) [Compound 128] |  |  |  |  | > 50000 nM | 1750 nM | 171 nM | > 20000 nM |
| O=C(Nc1ccc(F)c(-c2cn3cc(C4CC4)cnc3n2)c1)C1COCCO1 (centres unmarked) [Compound 600] | > 50000 nM | 1460 nM | 1780 nM | 1750 nM |  |  |  |  |
| Cc1nc(C)c(C(=O)Nc2ccc(F)c(-c3cn4cc(-c5cccc(F)n5)cnc4n3)c2)o1 [Compound 434] | 924 nM | 107 nM | 160 nM | 42 nM |  |  |  |  |

| Compound | EC50 [1] | EC50 ([2]; L. donovani axenic amastigotes) | EC50 [3] | EC50 [4] | EC50 ([1]; inhibition of proliferation) | EC50 [2, 5] | EC50 ([3]; inhibition of proliferation) | EC50 ([4]; inhibition of proliferation) |
| --- | --- | --- | --- | --- | --- | --- | --- | --- |
| COCCOCC(=O)Nc1cnc2nc(-c3cc(NC(=O)N4CCCC4)ccc3F)cn2c1 [Compound 137] |  |  |  |  | 24800 nM | 2150 nM | 406 nM | 8010 nM |
| Cc1nc(C)c(C(=O)Nc2ccc(F)c(-c3cn4cc(-c5ccc(F)nc5)cnc4n3)c2)o1 [Compound 436] | 1720 nM | 77 nM | 72 nM | 50 nM |  |  |  |  |
| Cc1nc(C)c(C(=O)Nc2ccc(F)c(-c3cn4cc(NC5=N[C@@H]6CCC[C@H]6O5)cnc4n3)c2)o1 [Compound 511] | 2280 nM | 1550 nM | 590 nM | 3680 nM |  |  |  |  |
| Cc1nc(C)c(C(=O)Nc2ccc(F)c(-c3cn4cc(-c5nccn5C)cnc4n3)c2)o1 [Compound 427] | 438 nM | 237 nM | 163 nM | 1330 nM |  |  |  |  |
| Cc1cc(C(=O)Nc2ccc(F)c(-c3cn4cc(NC(=O)OC(C)C)cnc4n3)c2)no1 [Compound 86] |  |  |  |  | > 50000 nM | > 25000 nM | 924 nM | > 20000 nM |
| Cc1nc(C)c(C(=O)Nc2ccc(F)c(-c3cn4cc(NC(=O)C5CC5)cnc4n3)c2)o1 [Compound 248] |  |  |  |  | 411 nM | 191 nM | 169 nM | > 20000 nM |
| Cc1nc(C)c(C(=O)Nc2ccc(F)c(-c3cn4cc(NS(=O)(=O)C(C)C)cnc4n3)c2)o1 [Compound 315, N-(4-fluoro-3-(6-(1-methylethylsulfonamido)imidazo[1,2-a]pyrimidin-2-yl)phenyl)-2,4-dimethyloxazole-5-carboxamide] |  |  |  |  | 19100 nM | 2520 nM | 4410 nM | > 19800 nM |
| C=Cc1cnc2nc(-c3cc(NC(=O)c4oc(C)nc4C)ccc3F)cn2c1 [Compound 581, N-(4-fluoro-3-(6-vinylimidazo[1,2-a]pyrimidin-2-yl)phenyl)-2,4-dimethyloxazole-5-carboxamide] | 249 nM | 169 nM | 101 nM | 110 nM |  |  |  |  |
| Cc1ncc(C(=O)Nc2ccc(F)c(-c3cn4cc(C(C)C)cnc4n3)c2)o1 [Compound 413] | 54 nM | 26 nM | 39 nM | 14 nM |  |  |  |  |
| Cc1nc(C)c(C(=O)Nc2ccc(F)c(-c3cn4cc(C(C)C)cnc4n3)c2)o1 [Compound 412] | 134 nM | 46 nM | 40 nM | 48 nM |  |  |  |  |
| Cc1nc(C)c(C(=O)Nc2ccc(F)c(-c3cn4cc(F)cnc4n3)c2)o1 [Compound 199] |  |  |  |  | 6440 nM | 878 nM | 1120 nM | 1060 nM |
| Cc1nc(C)c(C(=O)Nc2ccc(F)c(-c3cn4cc(NC(=O)C5CCC(=O)O5)cnc4n3)c2)o1 (centres unmarked) [Compound 156] |  |  |  |  | > 50000 nM | 3880 nM | 10600 nM | > 20000 nM |
| CC(C)OC(=O)Nc1ccc(F)c(-c2cn3cc(C4=CCOCC4)cnc3n2)c1 [Compound 332] |  |  |  |  | 592 nM | 166 nM | 124 nM | 134 nM |
| O=C(Nc1ccc(F)c(-c2cn3cc(F)cnc3n2)c1)N1CC[C@@H](F)C1 [Compound 234] |  |  |  |  | 741 nM | 219 nM | 151 nM | 155 nM |
| Cc1nc(C)c(C(=O)Nc2ccc(F)c(-c3cn4cc(C(C)c5ccccc5)cnc4n3)c2)o1 (centres unmarked) [Compound 420] | 1090 nM | 830 nM | 520 nM | 307 nM |  |  |  |  |
| CC(C)OC(=O)Nc1cnc2nc(-c3cc(NC(N)=O)ccc3Cl)cn2c1 [Compound 252] |  |  |  |  | > 50000 nM | > 25000 nM | 33000 nM | > 20000 nM |
| O=C(Nc1ccc(F)c(-c2cn3cc(C4=CCOCC4)cnc3n2)c1)N1CCC1 [Compound 322] |  |  |  |  | 157 nM | 43 nM | 20 nM | 76 nM |
| COCN(C(=O)OC(C)C)c1cnc2nc(-c3cc(NC(=O)c4oc(C)nc4C)ccc3F)cn2c1 [Compound 554] | 1850 nM | 814 nM | 664 nM | 1510 nM |  |  |  |  |
| CC(C)OC(=O)Nc1cnc2nc(-c3cc(Nc4ncccc4C(F)(F)F)ccc3F)cn2c1 [Compound 485] | 11500 nM | > 25000 nM | > 50000 nM | 1970 nM |  |  |  |  |
| Cc1nc(C)c(C(=O)Nc2ccc(F)c(-c3cn4cc(-c5cnn(C6CCN(C(=O)OC(C)(C)C)CC6)c5)cnc4n3)c2)o1 [Compound 384] | 616 nM | 95 nM | 143 nM | 115 nM |  |  |  |  |

Reference: patent US20160045505A1, “COMPOUNDS AND COMPOSITIONS FOR THE TREATMENT OF PARASITIC DISEASES” (NOVARTIS AG, priority 2013, published 2016)
